Measurements from paper PMC3656107, “Polymorphisms in the F8 Gene and MHC-II Variants as Risk Factors for the Development of Inhibitory Anti-Factor VIII Antibodies during the Treatment of Hemophilia A: A Computational Assessment” (PLoS Computational Biology, 2013).

Assays:
MHC-II DRB1*03:01 [1] = target: T1, MHC-II DRB1*03:01 (Homo sapiens, UniProt P01903+P01911, A100K/A102G/A103R/A169T/F55Y/I96L/K41T/L162R/M171V/P40S/Q125H/Q178H/Q39Y/R42S/S66N/T106N/T262R/W38E/Y61H); test: Cell-free REVEAL class II binding assay; settings: signal of test peptide as percentage of allele-specific positive control peptide, fluorescence, conformation-specific monoclonal antibody
Source text: (§1) We used a proprietary high throughput, REVEAL binding assay (ProImmune, www.proimmune.com) to estimate the binding of individual test peptides to the following MHC-II variants: DRB1*03:01, DRB1*04:01, DRB1*07:01, DRB1*11:01, DRB1*15:01 and DRB1*15:03 [28]. Detection of a peptide binding to each MHC-II protein is based on the presence or absence of the native conformation of the MHC-peptide complex. The peptide-MHC-II complex is detected by an increase in a fluorescence signal due to the binding of a specific monoclonal antibody. Each test-peptide is given a score relative to a positive control peptide, which is a known T-cell epitope for that MHC-II molecule. The score is reported quantitatively as a percentage of the signal generated by the test peptide compared with the positive control peptide. Assay performance is evaluated by including in each set of measurements an intermediate control peptide which is known to bind the MHC-II molecule but with a lower affinity than the positive control peptide. Note that the positive control peptide used to determine the binding score is different from the positive control peptides depicted in the figures, which are known T-cell epitopes identified in the FVIII molecule.

MHC-II DRB1*04:01 [2] = target: T2, MHC-II DRB1*04:01 (Homo sapiens, UniProt P01903+P01911, A100K/A169T/F76Y/I96L/K127E/L162R/M171V/N62H/P40V/Q125Y/R42H/S133A/S149N/S66Y/V115G/V209L/W38E); test: Cell-free REVEAL class II binding assay; settings: signal of test peptide as percentage of allele-specific positive control peptide, fluorescence, conformation-specific monoclonal antibody
Source text: as §1

MHC-II DRB1*07:01 [3] = target: T3, MHC-II DRB1*07:01 (Homo sapiens, UniProt P01903+P01911, A100R/A102G/A103Q/D57E/D86V/E43K/F76Y/K127E/L162R/M171V/P40G/Q125H/Q99D/R33Q/R42Y/R54Q/S133A/S66F/T210M/V115G/Y107V/Y59L/Y89S); test: Cell-free REVEAL class II binding assay; settings: signal of test peptide as percentage of allele-specific positive control peptide, fluorescence, conformation-specific monoclonal antibody
Source text: as §1

MHC-II DRB1*11:01 [4] = target: T4, MHC-II DRB1*11:01 (Homo sapiens, UniProt P01903+P01911, A100R/A169T/A87E/I96F/K41T/L162R/M171V/P40S/Q125H/Q178H/Q39Y/Q99D/R42S/S66Y/T262R/V115G/W38E); test: Cell-free REVEAL class II binding assay; settings: signal of test peptide as percentage of allele-specific positive control peptide, fluorescence, conformation-specific monoclonal antibody
Source text: as §1

MHC-II DRB1*15:01 [5] = target: T5, MHC-II DRB1*15:01 (Homo sapiens, UniProt P01903+P01911); test: Cell-free REVEAL class II binding assay; settings: signal of test peptide as percentage of allele-specific positive control peptide, fluorescence, conformation-specific monoclonal antibody
T5 construct: purchased ProImmune
Source text: as §1

MHC-II DRB1*15:03 [6] = target: T6, MHC-II DRB1*15:03 (Homo sapiens, UniProt P01903+P01911, Y59H); test: Cell-free REVEAL class II binding assay; settings: signal of test peptide as percentage of allele-specific positive control peptide, fluorescence, conformation-specific monoclonal antibody
T6 construct: purchased ProImmune
Source text: as §1

MHC-II DRB1*03:01 [7] = target: T1, MHC-II DRB1*03:01; test: Cell-free REVEAL class II stability assay; settings: half-life of peptide-MHC-II complex (h, capped at 120) x Binding Score / 100, conformational ELISA
Protocol: (§2) We measured the half-life of each peptide-MHC-II complex using REVEAL peptide-MHC affinity assays developed by ProImmune Ltd. (Oxford, UK). On-rates of peptides were measured over a 96-hr period at 10°C. A unique positive control peptide was used for each MHC-II allele. Samples of assembling peptide-MHC complexes were taken at defined time points and snap-frozen in liquid nitrogen prior to analysis. Assembly of peptide-MHC complexes was detected using a conformational ELISA involving an anti-HLA antibody. On-rates were calculated by fitting data to a one-phase association curve: [drawing 1] To determine the off-rates of the peptides, samples of dissociating complexes were taken at defined time points and frozen in liquid nitrogen prior to analysis. Percent denaturation of peptide-MHC complexes was also detected using a conformational ELISA. Off-rates were calculated by fitting data to a one-phase dissociation curve: [drawing 2] On- and off-rate half-life values (t1/2) were calculated from the rate constant (k) using the following equation: [drawing 3] To obtain a normalized stability score, the half-life values were multiplied by the Binding Score (see above) and divided by 100.

MHC-II DRB1*04:01 [8] = target: T2, MHC-II DRB1*04:01; test: Cell-free REVEAL class II stability assay; settings: half-life of peptide-MHC-II complex (h, capped at 120) x Binding Score / 100, conformational ELISA
Protocol: as §2

MHC-II DRB1*07:01 [9] = target: T3, MHC-II DRB1*07:01; test: Cell-free REVEAL class II stability assay; settings: half-life of peptide-MHC-II complex (h, capped at 120) x Binding Score / 100, conformational ELISA
Protocol: as §2

MHC-II DRB1*11:01 [10] = target: T4, MHC-II DRB1*11:01; test: Cell-free REVEAL class II stability assay; settings: half-life of peptide-MHC-II complex (h, capped at 120) x Binding Score / 100, conformational ELISA
Protocol: as §2

MHC-II DRB1*15:01 [11] = target: T5, MHC-II DRB1*15:01; test: Cell-free REVEAL class II stability assay; settings: half-life of peptide-MHC-II complex (h, capped at 120) x Binding Score / 100, conformational ELISA
Protocol: as §2

MHC-II DRB1*15:03 [12] = target: T6, MHC-II DRB1*15:03; test: Cell-free REVEAL class II stability assay; settings: half-life of peptide-MHC-II complex (h, capped at 120) x Binding Score / 100, conformational ELISA
Protocol: as §2

T1 sequence (P01903 26-254 limits assumed, other chains not shown): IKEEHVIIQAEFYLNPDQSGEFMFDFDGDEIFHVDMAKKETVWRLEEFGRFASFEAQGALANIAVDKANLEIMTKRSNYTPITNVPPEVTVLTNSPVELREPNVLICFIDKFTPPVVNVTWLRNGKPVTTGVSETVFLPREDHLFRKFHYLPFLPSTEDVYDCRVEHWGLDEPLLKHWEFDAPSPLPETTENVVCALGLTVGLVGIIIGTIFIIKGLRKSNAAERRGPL
T6 sequence (P01903 26-254, other chains not shown): as the sequence (P01903 26-254 limits assumed, other chains not shown) above
T4 sequence (P01903 26-254 limits assumed, other chains not shown): as above

Sequence | Binding Score (MHC-II DRB1*03:01 [1]) [%] | Binding Score (MHC-II DRB1*04:01 [2]) [%] | Binding Score (MHC-II DRB1*07:01 [3]) [%] | Binding Score (MHC-II DRB1*11:01 [4]) [%] | Binding Score (MHC-II DRB1*15:01 [5]) [%] | Binding Score (MHC-II DRB1*15:03 [6]) [%] | Stability Index (MHC-II DRB1*03:01 [7]) | Stability Index (MHC-II DRB1*04:01 [8]) | Stability Index (MHC-II DRB1*07:01 [9]) | Stability Index (MHC-II DRB1*11:01 [10]) | Stability Index (MHC-II DRB1*15:01 [11]) | Stability Index (MHC-II DRB1*15:03 [12])
KTDPWFAHRTPMPKI [synthetic wild type FVIII 15 mer peptide, region of ns-SNP R776G] | 0.0 | 8.2 | 4.0 | 0.5 | 0.1 | 0.2 | 0.0 | 0.5 | 1.2 | 0.1 | 0.1 | 0.0
LFLLSTRQNVEGSYD [synthetic wild type FVIII 15 mer peptide, region of ns-SNP D1241E] | 30.5 | 17.9 | 0.3 | 92.0 | 1.0 | 0.2 | 17.5 | 2.8 | 0.3 | 23.6 | 0.1 | 0.0
LQVDFQKTMKVTGVT [synthetic wild type FVIII 15 mer peptide, region of ns-SNP M2238V] | 30.7 | 11.6 | 0.1 | 235.0 | 4.4 | 1.5 | 13.5 | 0.9 | 0.1 | 62.0 | 0.3 | 0.0
LSTRQNVEGSYDGAY [synthetic wild type FVIII 15 mer peptide, region of ns-SNP D1241E] | 0.0 | 15.2 | 0.0 | 0.2 | 0.0 | 0.0 | 0.0 | 3.2 | 0.0 | 0.0 | 0.0 | 0.0
MKVTGVTTQGVKSLL [synthetic wild type FVIII 15 mer peptide, region of ns-SNP M2238V] | 0.0 | 7.8 | 0.0 | 0.1 | 1.4 | 0.0 | 0.0 | 0.8 | 0.0 | 0.0 | 0.8 | 0.0
NNPKEWLQVDFQKTM [synthetic wild type FVIII 15 mer peptide, region of ns-SNP M2238V] | 12.6 | 1.7 | 0.6 | 3.5 | 0.1 | 0.1 | 0.0 | 0.1 | 0.1 | 0.1 | 0.2 | 0.1
PENDIEKTDPWFAHR [synthetic wild type FVIII 15 mer peptide, region of ns-SNP R776G] | 0.0 | 0.7 | 0.0 | 2.9 | 0.1 | 0.3 | 0.0 | 0.1 | 0.0 | 0.1 | 0.1 | 0.0
PIIARYIRLHPTHYS [synthetic wild type FVIII 15 mer peptide] | 0.3 | 25.4 | 0.0 | 118.8 | 917.4 | 11.1 | 0.0 | 6.9 | 0.0 | 9.0 | 1100.9 | 13.3
PLLTRYLRIHPQSWV [synthetic wild type FVIII 15 mer peptide] | 0.0 | 12.1 | 1.7 | 62.8 | 714.7 | 10.7 | 0.0 | 1.4 | 2.0 | 8.8 | 857.7 | 12.8
